According to patent publication US8063218B2, “Imidazopyridine inhibitors of IAP” (Genentech, Inc., priority 2006, dated 2011):

Biological target: T1, MLXBIR3SG (Homo sapiens, UniProt Q96CA5, S150G)
T1 sequence (Q96CA5 with tags, fused parts or gaps S150G limits assumed): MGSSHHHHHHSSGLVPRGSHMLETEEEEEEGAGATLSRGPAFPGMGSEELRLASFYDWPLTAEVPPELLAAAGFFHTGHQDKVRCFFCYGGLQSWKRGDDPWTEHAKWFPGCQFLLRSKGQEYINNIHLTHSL
Test: Fluorescence Polarization Peptide Binding Assay (competition with AVP-diPhe-FAM probe)
Conditions: competition: MLXBIR3SG at 30 nM, 5 nM AVP-diPhe-FAM probe; Ki determined from the IC50 values
Experimental: In the following experiments was used a chimeric BIR domain referred to as MLXBIR3SG in which 11 of 110 residues correspond to those found in XIAP-BIR3, while the remainder correspond to ML-IAP-BIR. […] The improved caspase-9 inhibition of the chimeric BIR domain MLXBIR3SG has been correlated with increased inhibition of doxorubicin-induced apoptosis when transfected into MCF7 cells. MLXBIR3SG sequence:
Fluorescence Polarization Peptide Binding Assay
Polarization experiments were performed on an Analyst HT 96-384 (Molecular Devices Corp.) according to the procedure of Keating, S. M., Marsters, J, Beresini, M., Ladner, C., Zioncheck, K., Clark, K., Arellano, F., and Bodary., S. (2000) in Proceedings of SPIE: In Vitro Diagnostic Instrumentation (Cohn, G. E., Ed.) pp 128-137, Bellingham, Wash. Samples for fluorescence polarization affinity measurements were prepared by addition of 1:2 serial dilutions starting at a final concentration of 5 μM of MLXBIR3SG in polarization buffer (50 mM Tris [pH 7.2], 120 mM NaCl, 1% bovine globulins 5 mM DTT and 0.05% octylglucoside) to 5-carboxyflourescein-conjugated AVPdi-Phe-NH2 (AVP-diPhe-FAM) at 5 nM final concentration.
The reactions were read after an incubation time of 10 minutes at room temperature with standard cut-off filters for the fluorescein fluorophore (λex=485 nm; λem=530 nm) in 96-well black HE96 plates (Molecular Devices Corp.). Fluorescence values were plotted as a function of the protein concentration, and the IC50s were obtained by fitting the data to a 4-parameter equation using Kaleidograph software (Synergy software, Reading, Pa.). Competition experiments were performed by addition of the MLXBIR3SG at 30 nM to wells containing 5 nM of the AVP-diPhe-FAM probe as well as 1:3 serial dilutions of antagonist compounds starting at a concentration of 300 μM in the polarization buffer. Samples were read after a 10-minute incubation. Fluorescence polarization values were plotted as a function of the antagonist concentration, and the IC50 values were obtained by fitting the data to a 4-parameter equation using Kaleidograph software (Synergy software, Reading, Pa.). Inhibition constants (Ki) for the antagonists were determined from the IC50 values.

Row | Ki [nM] | Compound
1 | 1830 | CN[C@@H](C)C(=O)N[C@H](C(=O)N1CCC[C@H]1c1cn2cccc(-c3cccc4ccccc34)c2n1)C1CCOCC1 [Compound 20]
2 | 89.1 | CN[C@@H](C)C(=O)N[C@H](C(=O)N1CCC[C@H]1c1cn2c(-c3ccccc3)cccc2n1)C1CCOCC1 [Compound 1]
3 | 2310 | CN[C@@H](C)C(=O)N[C@H](C(=O)N1CCC[C@H]1c1cn2cccc(-c3ccc([N+](=O)[O-])cc3)c2n1)C1CCOCC1 [Compound 8]
4 | 18900 | CN[C@@H](C)C(=O)N[C@H](C(=O)N1CCC[C@H]1c1cn2cccc(-c3ccc(N(C)C)cc3)c2n1)C1CCOCC1 [Compound 7]
